From patent publication US8076315B2, “Pharmacological treatments for sleep disorders (apnoe) with prostanoid receptor antagonists” (The Board of Trustees of the University of Illinois, priority 2005, dated 2011)

Tests used:
[1] = tested on: sleep apnea in OSAS patients; conditions: cited from earlier work
[2] = tested on: spontaneous sleep apnea in the rat; test: spontaneous sleep apnea model in the rat (plethysmography with EEG/EMG recording); type: in vivo; conditions: for efficacy against sleep apnea (rate of apneas per hour of NREM and REM sleep, 6 hours of polygraphic recording): systemic injection 15 min before recording, Example 2, described as results that can be obtained
Experimental: Adult, male Sprague-Dawley rats (obtained from Sasco-King, Wilmington, Mass.; usually 8 per test group; average weight=300 g) are maintained on a 12-hour light (08:00-20:00 hour)/12-hour dark (20:00-08:00 hour) cycle for one week, housed in individual cages and given ad libitum access to food and water. Following the one week of acclimatization, animals are subjected to the following surgical procedures.
Acclimatized animals are anesthetized using a mixture of ketamine […] and xylazine (5 mg/kg) at a volume of 1 ml/kg body weight for the implantation of cortical electrodes for electroencephalogram (EEG) recording and neck muscle electrodes for electromyogram (EMG) recording. The surface of the skull is exposed surgically and cleaned with a 20% solution of hydrogen peroxide followed by a solution of 95% isopropyl alcohol. Next, a dental preparation of sodium fluoride (Flura-GEL®, Saslow Dental, Mt. Prospect, Ill.) is applied to harden the skull above the parietal cortex and allowed to remain in place for 5 minutes. The fluoride mixture is then removed from the skull above the parietal cortex. The EEG electrodes consisting of four stainless steel machine screws, having leads attached thereto, are threaded into the skull to rest on the dura over the parietal cortex. A thin layer of Justi® resin cement (Saslow Dental, Mt. Prospect, Ill.) is applied to cover the screw heads (of screws implanted in the skull) and surrounding skull to further promote the adhesion of the implant. EMG electrodes consisting of two ball-shaped wires are inserted into the bilateral neck musculature. All leads (i.e., EEG and EMG leads) are soldered to a miniature connector (39F1401, Newark Electronics, Schaumburg, Ill.). Lastly, the entire assembly is fixed to the skull with dental cement.
After surgery, all animals are allowed to recover for one week before being recorded for sleep and breathing.
Physiological parameters (see below) from each animal prepared as set forth in Example 1 are recorded on 2 occasions in random order, with recordings for an individual animal separated by at least 3 days. Fifteen minutes prior to each recording an animal receives a systemic injection (1 ml/kg intraperitoneal bolus) of either saline (control) or an active dose of a drug treatment.
Respiration is recorded by placing each animal, unrestrained, inside a single chamber plethysmograph (PLYUN1R/U; Buxco Electronics, Sharon, Conn.; dimension 6 in. ×10 in.×6 in.) ventilated with a bias flow of fresh room air at a rate of 2 L/min. A cable plugged onto the animal's connector and passed through a sealed port is used to collect the bioelectrical activity from the head implant.
Sleep and waking states are assessed using software developed by Benington et al. (1994, Sleep 17: 28-36) to analyze the biparietal EEG and nuchal EMG signals on 10-second epochs. This software discriminates wakefulness (W) as a high frequency low amplitude EEG with a concomitant high EMG tone, NREM sleep by increased spindle and […] together with decreased EMG tone, and REM sleep by a low ratio of a delta to theta activity and an absence of EMG tone. Sleep efficiency is measured as the percentage of total recorded epochs staged as NREM or REM sleep.
An accepted physiological animal model of spontaneous sleep apnea in the rat (see Radulovacki & Carley, 2002, in SLEEP-RELATED BREATHING DISORDERS: EXPERIMENTAL MODELS AND THERAPEUTIC POTENTIAL, (Carley & Radulovacki, eds.), Marcel Dekker: New York, pp. 3-16) is used to assess the effects of test drugs. More specifically, sleep apneas, defined as cessation of respiratory effort for at least 2.5 seconds, are scored for each recording session and associated with the stage of sleep in which they occur (i.e., NREM or REM sleep). The duration requirement of 2.5 seconds represents at least 2 “missed” breaths, which is therefore analogous to a 10 second apnea duration requirement in humans, which also reflects 2-3 missed breaths. […]

[3] = tested on: central apneas during all sleep stages; conditions: rats with frequent central apneas; cited from earlier work

| Compound | efficacy against sleep apnea (rate of apneas per hour of NREM and REM sleep, 6 hours of polygraphic recording) [2] | apnea frequency [3] | further results |
| --- | --- | --- | --- |
| O=C1CC2(CCCC2)CC(=O)N1CCCCN1CCN(c2ncccn2)CC1 [Buspirone] |  |  | patients with reduced apnea index ([1]; patients with sleep apnea syndrome (Mendelson et al., 1991)): 4 of 5 |
| CCCCCNC(=O)c1coc([C@H]2[C@@H](Cc3ccccc3CCC(=O)O)[C@@H]3CC[C@H]2O3)n1 [Ifetroban] | dose-dependent efficacy |  |  |
| COc1cc(N)c(Cl)cc1C(=O)N[C@H]1CN2CCC1CC2 [R-zacopride] |  | reduce apnea frequency |  |
| CC(=O)NNC(=O)N1Cc2ccccc2Oc2ccc(Cl)cc21 [SC19220] |  |  | animals in which apnea was eliminated throughout the 6-hour recording ([2]; intraperitoneal injection, 0.005 mg/kg, 4 test animals): 2 of 4; average reduction of apnea frequency with respect to placebo (DMSO) control injection ([2]; intraperitoneal injection, 0.005 mg/kg, 4 test animals, 6-hour recording): 64% |
| CN1CCN2c3ncccc3Cc3ccccc3C2C1 (stereo not drawn) [mirtazapine] |  | reduce apnea frequency | reduction of apnea frequency ([1]; one study of OSAS patients): 50% |
| Cc1nccn1CC1CCc2c(c3ccccc3n2C)C1=O (stereo not drawn) [ondansetron] |  | reduce apnea frequency | effect on sleep apnea ([1]; another study of OSAS patients): failed to demonstrate any effect |
| O=C(O)CCn1c2c(c3ccccc31)C[C@H](NS(=O)(=O)c1ccc(F)cc1)CC2 [ramatroban] | dose-dependent efficacy |  |  |
| diphloretin phosphate | dose-dependent efficacy |  |  |
| polyphloretin phosphate | dose-dependent efficacy |  |  |
